# Target: T1, FLAG-tagged PRMT1 (Rattus norvegicus, UniProt Q63009)
# T1 construct: Full-length FLAG-tagged PRMT protein; made in house; host or cells: Sf9 insect cells (baculovirus)
# Experiment: Fluorescence-based in vitro PRMT assay (F-PRMT assay), PRMT1
# Format: biochemical
# Conditions: 100 μM compound
# T1 sequence (Q63009 whole entry): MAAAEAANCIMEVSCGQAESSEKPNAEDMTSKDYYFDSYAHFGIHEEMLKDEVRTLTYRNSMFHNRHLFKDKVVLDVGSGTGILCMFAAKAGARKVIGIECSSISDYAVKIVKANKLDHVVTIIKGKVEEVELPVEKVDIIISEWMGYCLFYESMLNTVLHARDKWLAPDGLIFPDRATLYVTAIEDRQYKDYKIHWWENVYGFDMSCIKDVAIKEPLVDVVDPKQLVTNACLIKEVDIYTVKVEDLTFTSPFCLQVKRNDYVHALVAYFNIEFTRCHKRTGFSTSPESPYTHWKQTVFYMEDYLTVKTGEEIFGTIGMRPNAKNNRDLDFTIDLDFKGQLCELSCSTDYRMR
row,effect on PRMT1 activity (in words),Structure (SMILES)
1,no effect,CN(C)c1ccccc1N/C=C1\C(=O)NC(=O)c2ccccc21 [ICTR-015]
2,no effect,Nc1ccccc1N/C=C1\C(=O)NC(=O)c2ccccc21 [ICTR-019]
3,no effect or a modest activating effect,CN(C)c1ccccc1CN/C=C1\C(=O)NC(=O)c2ccccc21 [ICTR-052]
4,no effect,CCN(CC)c1ccccc1N/C=C1\C(=O)NC(=O)c2ccccc21 [ICTR-060]
5,reduced activating effect,CN(C)Cc1ccccc1CN/C=C1\C(=O)NC(=O)c2ccccc21 [ICTR-063]
6,no effect,CC(C)Cc1ccc(N/C=C2\C(=O)NC(=O)c3ccccc32)cc1 [ICTR-076]
7,significantly increased PRMT1 activity,CCN(CC)Cc1cccc(-c2ccc3[nH]c(=O)c4ccccc4c3c2)c1 [ICTR-096]
8,no effect or a modest activating effect,C[N+](C)(C)Cc1cccc(CN/C=C2\C(=O)NC(=O)c3ccccc32)c1.[I-] [ICTR-108]
9,no significant effect,CCN(CC)Cc1ccccc1CN/C=C1\C(=O)NC(=O)c2ccccc21 [ICTR-119]
10,equal,CN(C)Cc1ccccc1N/C=C1\C(=O)NC(=O)c2ccccc21 [TR-022]
11,no significant effect,"O=C1NC(=O)c2ccccc2/C1=C/Nc1ccccn1 [TR-030, (Z)-4-[(Pyridin-2-ylamino)methylene]isoquinoline-1,3(2H,4H)-dione]"
12,no significant effect,O=C1NC(=O)c2ccccc2C1=CNc1cccnc1 [TR-031]
13,strong inhibitory effect,O=C1NC(=O)c2ccccc2C1=CNc1cccc(CN2CCOCC2)c1 [TR-038]

row,Structure (SMILES),effect on PRMT1 activity (in words)
1,O=C1NC(=O)c2ccccc2C1=CNc1ccccc1Cn1cccc1 [ICTR-036],no significant or minimal inhibitory activity
2,O=C1NC(=O)c2ccccc2C1=CNc1ccccc1Cn1cncn1 [ICTR-042],no significant or minimal inhibitory activity
3,CCN(CC)Cc1ccccc1-c1ccc2[nH]c(=O)c3ccccc3c2c1 [ICTR-094],significantly lower activation of PRMT1 compared to TR-07
4,"CN(C)CCCN/C=C1\C(=O)NC(=O)c2ccccc21 [TR-018, (Z)-4-({[3-(Dimethylamino)propyl]amino}methylene)isoquinoline-1,3(2H,4H)-dione]","activated PRMT1 in a significant manner, albeit to a considerably lesser extent than TR-07"
5,O=C1NC(=O)c2ccccc2C1=CNCc1cccnc1 [TR-032],"activated PRMT1 in a significant manner, albeit to a considerably lesser extent than TR-07"

# Same assay, conditions: 100 μM compound, increase over solvent-treated activity; read-out: enhancement (increase) of PRMT1 enzymatic activity
row,activation at 100 µM,Structure (SMILES)
1,≥ 60%,CCN(CC)Cc1cccc(-c2ccc3[nH]c(=O)c4ccccc4c3c2)c1 [ICTR-096]
2,≥ 60%,CN(C)Cc1ccc(N/C=C2\C(=O)NC(=O)c3ccccc32)cc1 [TR-021]

# Target: T2, FLAG-tagged PRMT4 (Mus musculus, UniProt Q9WVG6)
# T2 construct: Full-length FLAG-tagged PRMT protein; made in house; host or cells: Sf9 insect cells (baculovirus)
# T2 sequence (Q9WVG6 1-608): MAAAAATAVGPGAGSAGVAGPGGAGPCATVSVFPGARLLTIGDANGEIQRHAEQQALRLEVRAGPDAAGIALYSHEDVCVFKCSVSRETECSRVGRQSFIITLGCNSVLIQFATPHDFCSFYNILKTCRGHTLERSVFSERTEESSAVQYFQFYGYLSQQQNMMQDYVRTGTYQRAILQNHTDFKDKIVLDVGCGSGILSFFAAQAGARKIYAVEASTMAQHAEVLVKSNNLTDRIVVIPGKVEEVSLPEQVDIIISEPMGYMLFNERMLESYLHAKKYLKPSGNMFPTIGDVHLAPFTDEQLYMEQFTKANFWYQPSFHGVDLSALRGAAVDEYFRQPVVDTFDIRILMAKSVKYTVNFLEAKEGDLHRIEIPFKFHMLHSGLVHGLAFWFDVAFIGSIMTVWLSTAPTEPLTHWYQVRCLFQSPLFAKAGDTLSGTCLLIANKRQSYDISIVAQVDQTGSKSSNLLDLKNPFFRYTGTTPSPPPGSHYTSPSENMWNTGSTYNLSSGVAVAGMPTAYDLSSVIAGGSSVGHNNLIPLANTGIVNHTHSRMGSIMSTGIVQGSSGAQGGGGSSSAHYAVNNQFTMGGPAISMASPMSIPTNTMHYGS
# Experiment: Fluorescence-based in vitro PRMT assay (F-PRMT assay), PRMT4
# Format: biochemical
# Conditions: Table S2; 100 µM compound, vs solvent control = 100%, n=3; racemates used
# Description: (§1) To evaluate the effects of the selected candidate molecules on the catalytic activity of type I enzymes, we employed a quantitative fluorescence-based in vitro PRMT activity (F-PRMT) assay using recombinant FLAG-tagged PRMT proteins expressed and affinity-purified from baculovirus-infected Sf9 cells (SI Figure S1, SI Figure S2A).
# (§2) Human cell lines (PaTu8988T, PANC-1) were obtained from ATCC (American Type Culture Collection) and cultured in DMEM supplemented with 10% fetal calf serum (FCS, Gibco/BRL), 1% penicillin/streptomycin at 37 °C and 5% CO2. […] For PRMT1 inhibition, cells were treated with type I PRMT inhibitor MS023 hydrochloride (Biomol). For induction of genotoxic stress, cells were treated with gemcitabine (LC Laboratories). […] The following plasmids were used: pFASTBAC-FLAG-rat PRMT1, pFASTBAC-FLAG-mouse PRMT4, and pGEX-GAR. The complete ORFs of human PRMT3 and PRMT6 were inserted into the pFASTBAC HT-3xFLAG B vector via BamHI/HindIII and BamHI/XhoI sites, respectively.
# (§3) For PRMT protein expression in insect cells, recombinant baculovirus (bacmid) was generated using the Bac-to-Bac baculovirus system (Invitrogen). Sf9 cells were transfected with bacmid DNA using X-tremeGENE HP DNA transfection reagent (Sigma-Aldrich) according to the manufacturer's instructions. After 3–5 days, supernatants were collected, filtered, and used to infect Sf9 cells to amplify the virus. After 2 rounds of virus amplification and estimation of the final P3 virus titer, the P3 virus (2–5 μL/10^6 cells) was applied for large-scale infection of 200 × 10^6 Sf9 cells in suspension culture at a density of 1 × 10^6 cells/mL. Cells were harvested 5–6 days post-infection by centrifugation at 500 g for 5 min at room temperature. Protein purification from baculovirus-infected Sf9 cells was performed as previously described. , Cells were lysed in BC buffer (20 mM HEPES pH 7.9, 250 mM NaCl, 10% (v/v) glycerin, 0.4 mM EDTA, 1 mM DTT) containing a protease inhibitor cocktail (Roche) by 3 freeze-thaw cycles. After centrifugation at 11,000 rpm (Sorval SS34 rotor) and 4 °C for 1 h, the supernatant (whole cell protein extract) was incubated with anti-FLAG M2 Affinity Gel (Cytiva) at 4 °C and under agitation for 4 h. Subsequently, beads were washed in BC buffer containing various NaCl concentrations (once in BC with 1 M NaCl, twice in BC with 500 mM NaCl, twice in BC with 250 mM NaCl and twice in BC with 100 mM NaCl). FLAG-tagged proteins were either maintained bead-bound as a 50% (v/v) slurry in BC buffer with 100 mM NaCl and stored at −80 °C or were eluted in the appropriate elution buffer (depending on the subsequent assay) containing 0.25 mg/mL 3xFLAG peptides (Sigma-Aldrich) at 4 °C for 30–45 min. To remove the FLAG-peptides from the eluate, dialysis was performed in elution buffer containing 10% (v/v) glycerol at 4 °C for 4–6 h using Slide-A-Lyzer Dialysis Devices (Thermo Fisher Scientific) according to the manufacturer’s recommendations.
# (§4) In the first step, the fluorogenic substrate Nα-Benzoyl-L-arginine-7-amido-4-methylcoumarin (Bz-Arg-AMC, Sigma-Aldrich) undergoes methylation by PRMTs upon the addition of the cofactor SAM. In the second reaction step, trypsin cleaves the nonmethylated substrate, leading to the generation of the 7-amino-4-methylcoumarin product, which can be quantified by subsequent fluorescence measurement (excitation: 355 nm, emission: 460 nm). The first reaction was conducted with bead-bound PRMTs at a total volume of 100 μL. Each condition was performed as a technical triplicate to determine the mean and the standard deviation. […] For the negative controls, SAM was substituted with assay buffer. The incubation was continued at 37 °C and under agitation (1,000 rpm) for a duration of 2 h.
row,Structure (SMILES),Experimental result (PRMT4)
1,Cc1nc([C@@H](O)Cc2ccccc2)n(CCc2cnc[nH]2)n1 (racemic) [Compound K001FT007],"n.e. (did not significantly affect the catalytic activity of the intended PRMT (less than ±6% change or not significant p-value), are marked with n.e. (no effect))"
2,CC[C@H](NC(=O)c1cccc(Cn2cccn2)c1)c1nc(C)c[nH]1 (racemic) [Compound K001FT009],"n.e. (did not significantly affect the catalytic activity of the intended PRMT (less than ±6% change or not significant p-value), are marked with n.e. (no effect))"
3,OCCNC[C@@H](O)COc1ccccc1 (racemic) [Compound K001JS001],"n.e. (did not significantly affect the catalytic activity of the intended PRMT (less than ±6% change or not significant p-value), are marked with n.e. (no effect))"
4,O[C@H](CNCc1ccco1)COc1ccc2ccccc2c1 (racemic) [Compound K001JS002],"n.e. (did not significantly affect the catalytic activity of the intended PRMT (less than ±6% change or not significant p-value), are marked with n.e. (no effect))"
5,CNC(=O)COc1ccc(NC(=O)[C@@H]2NC[C@@H]3C[C@@H]32)cc1 (racemic) [Compound K400JK006],"n.e. (did not significantly affect the catalytic activity of the intended PRMT (less than ±6% change or not significant p-value), are marked with n.e. (no effect))"
6,C#CCNCC(=O)Nc1ccc([C@@H]2C[C@H]2N)cc1 (racemic) [Compound K400JK009],"n.e. (did not significantly affect the catalytic activity of the intended PRMT (less than ±6% change or not significant p-value), are marked with n.e. (no effect))"
7,CNC(=O)Cn1cc(NC(=O)[C@@H]2CC[C@@H]2N)cn1 (racemic) [Compound K400JK012],"n.e. (did not significantly affect the catalytic activity of the intended PRMT (less than ±6% change or not significant p-value), are marked with n.e. (no effect))"
8,CNCCCc1ncc(-c2ccccc2Br)[nH]1 [Compound K001FT002],"n.e. (did not significantly affect the catalytic activity of the intended PRMT (less than ±6% change or not significant p-value), are marked with n.e. (no effect))"
9,N=C(N)NCCCc1ccccc1Br [Compound K001FT004],"n.e. (did not significantly affect the catalytic activity of the intended PRMT (less than ±6% change or not significant p-value), are marked with n.e. (no effect))"

# Same assay, conditions: Table S2; 100 µM compound; mean % difference vs solvent control (100%), n=3
row,Efficacy ±∆% (PRMT4),Structure (SMILES)
1,-50%,NCCNC[C@@H](O)COc1ccc(Cl)c(Cl)c1 (racemic) [Compound K001FT003]

# Target: T3, FLAG-tagged PRMT6 (Homo sapiens, UniProt Q96LA8)
# T3 construct: The complete ORFs of human PRMT3 and PRMT6 were inserted; made in house; host or cells: Sf9 insect cells (baculovirus)
# Experiment: Fluorescence-based in vitro PRMT assay (F-PRMT assay), PRMT6
# Format: biochemical
# Conditions: Table S2; 100 µM compound, vs solvent control = 100%, n=3; racemates used
# Description: as §1, §2, §3, §4
# T3 sequence (Q96LA8 whole entry): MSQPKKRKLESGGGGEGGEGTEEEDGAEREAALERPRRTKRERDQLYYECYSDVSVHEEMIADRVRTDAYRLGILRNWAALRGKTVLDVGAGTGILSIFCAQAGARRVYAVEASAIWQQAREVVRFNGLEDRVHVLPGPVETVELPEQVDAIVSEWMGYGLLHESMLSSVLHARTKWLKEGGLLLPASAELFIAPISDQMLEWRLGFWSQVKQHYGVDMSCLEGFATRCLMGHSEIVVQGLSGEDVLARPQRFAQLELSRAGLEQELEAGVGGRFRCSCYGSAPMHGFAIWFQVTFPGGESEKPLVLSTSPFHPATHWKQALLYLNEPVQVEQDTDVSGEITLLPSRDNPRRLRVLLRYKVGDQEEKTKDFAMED
row,Structure (SMILES),Experimental result (PRMT6)
1,CCN(CC(=O)NCCc1cccc(Cl)c1)C1CNC1 [Compound K600JK006],"n.e. (did not significantly affect the catalytic activity of the intended PRMT (less than ±6% change or not significant p-value), are marked with n.e. (no effect))"
2,CC(C)N(CCCOCc1ccccc1)CC(=N)NO [Compound K600JK007],"n.e. (did not significantly affect the catalytic activity of the intended PRMT (less than ±6% change or not significant p-value), are marked with n.e. (no effect))"
3,CC(C)(C)c1cccc(OCCNC2CC(CN)C2)c1 (stereo not drawn) [Compound K600JK008],"n.e. (did not significantly affect the catalytic activity of the intended PRMT (less than ±6% change or not significant p-value), are marked with n.e. (no effect))"

# Source: paper PMC13576449, “Small-Molecule Activators of PRMT1: Discovery, SAR Analyses, and Proapoptotic Effects in Pancreatic Cancer Cells” (Journal of Medicinal Chemistry, 2026)
